Literature values, collected in patent publication US12533325B2, “Composition and method for preventing or treating opioid withdrawal symptoms” (priority 2023, dated 2026).

Tested on: heroin-seeking behavior

Compound: C=C(C)[C@@H]1CCC(C)=C[C@H]1c1c(O)cc(CCCCC)cc1O [CBD, Cannabidiol]
- heroin-seeking behavior reinstated by a conditional stimulus (cue-induced reinstatement): attenuated heroin-seeking behavior reinstated by a conditional stimulus
- persistence of effect on heroin-seeking behavior after administration (twenty-four hours and two weeks after administration): protracted effect with significance after twenty-four hours and even two weeks after administration
